{"source": "patent US20220153746A1", "about": "“NITROGEN OXIDE-DONATING PDE-5 AND/OR PDE-6 INHIBITOR COMPOUNDS, AND USES THEREOF” (ILDONG PHARMACEUTICAL CO., LTD., priority 2020, published 2022)", "key": {"[1]": {"assay": "Metabolic stability in human liver microsomes", "assay_type": "in vitro ADME", "settings": "37° C., 0-60 minutes", "experimental": "This example illustrates the metabolic stability of selected compounds in human liver microsomes samples.\nBoth test and control compound solutions were prepared by diluting 5 μL of the respective stock solutions (10 mM in DMSO) containing either the test or control compound with 495 μL of acetonitrile (ACN) to give intermediate solutions with concentrations of 100 μM (99% ACN).\nβ-Nicotinamide adenine dinucleotide phosphate tetrasodium salt (NADPH.4Na) was purchased from BONTAC (cat. No. BT04). The NADPH working solution (10 unit/mL) was prepared by combining the appropriate amount of NADPH powder and a MgCl2 solution (10 mM) to give final concentration in the reaction system of 1 unit/mL.\nThe appropriate concentrations of the microsome working solutions were prepared in 100 mM potassium phosphate buffer.\nCold (4° C.) acetonitrile solution containing 200 ng/mL tolbutamide and 200 ng/mL labetalol (internal standard) was used as the stop solution.\nLiver microsomes solution was diluted to 0.56 mg/mL in 100 mM phosphate buffer, and 445 μL of this solution was transferred into pre-warmed (10 minutes) “incubation” plates T60 and NCF60; the “incubation” plates T60 and NCF60 were pre-warmed for 10 minutes at 37° C. with constant shaking.\n54 μL of the liver microsome solutions was transferred to the blank plate, followed by addition of 6 μL of the NAPDH cofactor solution and 180 μL of the quenching solution to the same blank plate.\n5 μL of the compound working solution (100 μM concentration) was next added to into the “incubation” plates (T60 and NCF60) containing microsomes and mixed 3 times thoroughly. For the NCF60 plate, 50 μL of the buffer solution was added, mixed 3 times thoroughly, and incubated at 37° C. for 60 minutes under constant shaking.\nIn the “Quenching” plate at T0 (T=0 min), 180 μL of quenching solution and 6 μL of the NAPDH cofactor solution were added, and the resulting plate was chilled to prevent evaporation.\nIn the T60 plate, after it was thoroughly mixed, 54 μL of the mixture was immediately transferred to the “quenching” plate for the 0-minute time point, followed by addition of 44 μL of NAPDH cofactor solution to the incubation plate (T60). The resulting mixture was then incubated at 37° C. for 60 minutes under constant shaking. At time points of 5, 10, 20, 30 and 60 minutes, 180 μL of the quenching solution was added to the “quenching” plates, followed by serial transfer of 60 μL of the mixture (per time point) from the T60 plate to the “Quenching” plates.\nFor the NCF60 plates, 60 μL of the sample solution was transferred from the NCF60 incubation plate to the “Quenching” plate containing quenching solution at T=60 min time point. […]"}, "human PDE-6C": {"target": "human PDE-6C (Homo sapiens, UniProt P51160)", "sequence (P51160 whole entry)": "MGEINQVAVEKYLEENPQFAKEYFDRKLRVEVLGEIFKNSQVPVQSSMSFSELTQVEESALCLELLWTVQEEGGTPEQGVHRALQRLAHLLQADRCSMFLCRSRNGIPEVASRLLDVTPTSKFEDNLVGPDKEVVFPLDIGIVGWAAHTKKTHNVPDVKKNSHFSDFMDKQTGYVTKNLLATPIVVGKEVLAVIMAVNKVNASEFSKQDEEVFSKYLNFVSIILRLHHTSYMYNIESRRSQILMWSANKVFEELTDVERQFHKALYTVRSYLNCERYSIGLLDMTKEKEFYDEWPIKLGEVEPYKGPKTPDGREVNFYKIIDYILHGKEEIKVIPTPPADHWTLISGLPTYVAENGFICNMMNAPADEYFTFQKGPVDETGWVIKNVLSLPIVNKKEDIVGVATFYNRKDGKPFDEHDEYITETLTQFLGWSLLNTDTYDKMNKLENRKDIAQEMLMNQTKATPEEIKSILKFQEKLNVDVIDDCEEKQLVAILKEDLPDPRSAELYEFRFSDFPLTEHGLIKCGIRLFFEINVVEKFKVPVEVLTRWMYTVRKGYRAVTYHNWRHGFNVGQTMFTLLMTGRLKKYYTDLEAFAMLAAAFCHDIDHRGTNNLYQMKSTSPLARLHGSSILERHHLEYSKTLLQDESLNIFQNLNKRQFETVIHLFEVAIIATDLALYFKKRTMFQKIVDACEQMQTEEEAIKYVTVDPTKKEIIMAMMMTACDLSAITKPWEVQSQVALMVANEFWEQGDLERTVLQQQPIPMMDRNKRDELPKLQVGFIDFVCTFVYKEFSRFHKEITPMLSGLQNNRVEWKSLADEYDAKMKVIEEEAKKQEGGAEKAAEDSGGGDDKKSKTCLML", "assay": "Human PDE-6C inhibition assay (fluorescence polarization, FAM-cGMP)", "assay_type": "biochemical", "settings": "read-out: IC50 (μM) PDE6C"}, "human PDE-5A1": {"target": "human PDE-5A1 (Homo sapiens, UniProt O76074)", "assay": "Human PDE-5A1 inhibition assay (fluorescence polarization, FAM-cGMP)", "assay_type": "biochemical", "settings": "read-out: IC50 (μM) PDE5A1"}, "[2]": {"assay": "Plasma protein binding assay (equilibrium dialysis)", "assay_type": "in vitro ADME", "settings": "human plasma, dialysis 4 hours at 37° C.", "experimental": "(§1) The dialysis device used in this example is a 96-well equilibrium dialysis plate (Cat #1006, HT Dialysis LLC, Gales Gerry, CT), and HTD 96 a/b dialysis membrane strips (Cat #1101, MWCO 12-14 kDa, HT Dialysis LLC). The dialysis device was assembled following the manufacturer's instructions.\n(§2) The dialysis membrane strips were soaked in ultra-pure water at room temperature for approximately 1 hour. Each membrane strip containing 2 membranes was separated and soaked in 20:80 ethanol/water (v/v) for approximately 20 minutes, after which they were ready for used or were stored in the solution at 2-8° C. for up to a month. Prior to experiment, the membrane was rinsed and soaked for 20 minutes in ultra-pure water.\n(§3) On the day of the experiment, the plasma was thawed by running under col tap water and centrifuged at 3220 rpm for 5 minutes to remove any clos. The pH value of the resulting plasma was checked. Only plasma with pH value with 7.0-8.0 could be used.\n(§4) Both test and control compounds were dissolved in DMSO to achieve 10 mM stock solutions. Working solutions (400 μM) if test and control compounds were prepared by diluting 10μ of stock solutions with 240 μL of DMSO. Loading matrix solutions (2 μM) of both test and control compounds were prepared by diluting 5 μL of working solutions with 995 μL of blank matrix.\n(§5) To prepare the loading matrix containing the test compound or control compounds, aliquots of either test compound working solutions or control compound working solution were spiked into blank matrix to achieve final test concentrations. The concentration of organic solvent in the final solutions were no more than 1% (normally 0.5%). The samples were mixture thoroughly before being used.\n(§6) To prepare the time zero (T0) samples to be used for recovery determinations. 50 μL aliquots of loading matrix solution were transferred in triplicate to the sample collection plate. The samples were immediately matched with opposite blank buffer to obtain a final volume of 100 μL of 1:1 matrix/dialysis buffer (v/v) in each well. 500 μL of stop solution were added to these T0 samples. They were then stored at 2-8° C. pending further processes along with other post-dialysis samples.\n(§7) To load the dialysis device, an aliquot of 150 μL of the loading matrix was transferred to the donor side of each dialysis well in triplicate, and 150 μL of the dialysis buffer was loaded to the received side of the well. The dialysis was placed in humidified incubator at 37° C. with 5% CO2 on a shaking platform that rated slowly (about 100 rpm) for 4 hours.\n(§8) At the end of the dialysis, aliquots of 50 μL of samples were taken from both the buffer side and the matrix side of the dialysis deice. These samples were transferred into new 96-well plates (the sample collection plates). Each sample was mixed with an equal volume of opposite blank matrix (buffer or matrix) to reach a final volume of 100 μL of 1:1 matrix/dialysis buffer (v/v) in each well. All samples were further processed by adding 500 μL of stop solution containing internal standards. The mixture was vortexed and centrifuged at 4000 rpm for about 20 minutes. An aliquot of 100 μL of supernatant of all the samples were then removed for LC-MS/MS analysis.\n(§9) The single blank samples were prepared by transferring 50 μL of blank matrix to a 96 well plate and adding 50 μL of blank PBS buffer to each well. The blank plasma must match the species of plasma used in the plasma side of the well. Then the matrix-matched samples were further processed by adding 500 μL of stop solution containing internal standards, following the same sample processing method as the dialysis samples."}, "human plasma proteins": {"tested_on": "human plasma proteins", "assay": "Plasma protein binding assay (equilibrium dialysis)", "assay_type": "in vitro ADME", "settings": "2 μM, dialysis 4 hours at 37° C.", "experimental": "as §1, §2, §3, §4, §5, §6, §7, §8, §9"}}, "data": [{"smiles": "CCCc1nn(C)c2c(=O)[nH]c(-c3cc(S(=O)(=O)N4CC(NCCCO[N+](=O)[O-])C4)ccc3OCC)nc12", "note": "[Compound 22, 3-((1-((4-ethoxy-3-(1-methyl-7-oxo-3-propyl-6,7-dihydro-1H-pyrazolo[4,3-d]pyrimidin-5-yl)phenyl)sulfonyl)azetidin-3-yl)amino)propyl nitrate]", "values": [{"measurement": "CLint scaled at 1 µM", "setting": "[1]", "value": 358, "unit": "mL/min/kg"}, {"measurement": "IC50", "setting": "human PDE-6C", "value": "< 0.01", "unit": "µM"}, {"measurement": "IC50", "setting": "human PDE-5A1", "value": "< 0.01", "unit": "µM"}, {"measurement": "fraction unbound at 4 h, 2 µM", "setting": "[2]", "value": 0.0247}, {"measurement": "% Bound", "setting": "human plasma proteins", "value": 97.53, "unit": "%"}]}]}
